Data: patent US20090054412A1, “Treatment of Sleep Disorders” (priority 2007, published 2009)
Entries after “also recorded” stand apart in the source; their conditions may differ. Marks after values point to notes of the source that are not given here.

What was measured:
[1] = molecular target: T1, rat GABAA receptors α5β2γ2 (Rattus norvegicus, UniProt P18508+P19969); assay: Stimulation of GABA (EC3-5)-elicited currents in Xenopus oocytes, two-electrode voltage clamp, α5β2γ2; format: cell-based
T1 construct: expressed in transfected cells; host or cells: Xenopus laevis oocytes, cRNA microinjected
Text: (§1) 7-Chloro-3-(5-dimethylaminomethyl-[1,2,4]oxadiazol-3-yl)-5methyl-4,5-dihydro-imidazol[1,5,-a][1,4]benzodiazepine-6-one was used to test the effects of the compound of formula (II): […]
(§2) Similar procedures were chosen as for the investigation of other GABAA receptor subunit specific substances (e.g., Baur et al., 2005; Mol. Pharmacol. 68, 787-792).
(§3) Lobes of the ovary containing the follicles were obtained by surgical procedures from female Xenopus laevis. Follicles were singled out using a platinum loop. Fifty nL of cRNA solution at a ratio of αx:β2:γ2 of 1:1:5 (3.3-10 nM αx (x=1,2,3,5); 3.3-10 nM β2; 16.7-50 nM γ2) (Boileau et al., 2002; Neuropharmacology 43, 695-700) were microinjected into Xenopus follicles. Several hours after microinjection the follicles were freed of follicular layers and adhering connective tissue by a collagenase/hypertonic shock procedure (Sigel, 1987; J. Physiol.(Land) 386, 73-90). Oocytes were kept at constant 18° C. until measurement (1-4 days) in a modified Barth solution (88 mM NaCl, 1 mM KCl, 2.4 mM NaHCO3, 10 mM Hepes-NaOH (pH 7.5), 0.82 mM MgSO4×7H2O, 0.34 mM Ca(NO3)2×4H2O, 0.41 mM CaCl2×2H2O, 100 U Penicillin/mL, 100 μg Streptomycin/mL, sterile filtered).
(§4) Currents were measured using a home-built amplifier in combination with a xy-recorder or were digitized using a MacLab/200 (AD Instruments) and stored on a computer. Xenopus oocytes were voltage clamped using the two-electrode voltage clamp technique (electrode resistance about 0.8 MΩ) at −80 mV. The medium contained 90 mM NaCl, 1 mM KCl, 1 mM MgCl2, 1 mM CaCl2, 10 mM Na-Hepes (pH 7.4) and 0.5% DMSO.
(§5) GABA was applied for 20-50 seconds without or in combination with other drugs and a washout period of 4 minutes was allowed to ensure full recovery from desensitization, which was experimentally determined. The perfusion solution (6 mL/min) was applied through a glass capillary with an inner diameter of 1.35 mm, the mouth of which was placed about 0.4 mm from the surface of the oocyte. The rate of solution change under our conditions has been estimated 70% within less than 0.5 s (Sigel et al., 1990; Neuron 5, 703-711). The entire perfusion system and the assay chamber were cleaned between drug applications by washing with DMSO.
(§6) Data is given as mean±SD, except in the figures where data is shown for clarity as mean±SEM. Current stimulation was calculated as follows: stimulation (%)=((I(GABA+modulator)−I(GABA))/I(GABA))×100%, where I is the current amplitude. Where indicated, the stimulation was standardized to the stimulation by 1 μM diazepam (100%). To obtain FIGS. 1-4, values for current stimulation obtained at a given concentration of modulator at a given subunit combination were averaged. The data points were fitted with the equation stimulation=efficacy/(1+(potency/concentration of modulator)). The values given in the Tables (Summary) are obtained by fitting individual curves and subsequently averaging efficacy and potency.
(§7) Concentration response curves were also performed with oocytes expressing α2β2γ2, α3β2γ2, or α5β2γ2, after establishing the optimal concentration range as indicated above. […] Averaged data of the individual curves summarizing the effects of the compound of formula (II) are shown below for unstandardized and standardized stimulation.
(§8) Concentration response curves were also performed with oocytes expressing α2β2γ2, α3β2γ2, or α5β2γ2.
(§9) Current stimulation by diazepam was determined in each batch of oocytes as follows. GABA (EC3-5) was applied until a stable response was obtained. Subsequently, GABA was applied in combination with 1 μM diazepam.

[2] = Example 1: placebo controlled cross-over study, road noise model, healthy volunteers; format: in vivo, human
Protocol: A placebo controlled, randomized, double-blind, cross-over study of the effects of the compound of formula (II) was conducted using a road noise model using 12 healthy volunteers. Specifically, the volunteers were subjected to road traffic noise to imitate the effects of insomnia, and the medication was orally administered 5 minutes before the 11 pm bed time in 1.0 mg, 1.5 mg, 2 mg and 2.5 mg doses in the form of a hard gelatine capsule containing the powdered compound of formula (II). Measurements were then taken at 8, 10 and 12 hours after dosing.

[3] = molecular target: T2, rat GABAA receptors α1β2γ2 (Rattus norvegicus, UniProt P18508+P62813); assay: Stimulation of GABA (EC3-5)-elicited currents in Xenopus oocytes, two-electrode voltage clamp, α1β2γ2; format: cell-based
T2 construct: expressed in transfected cells; host or cells: Xenopus laevis oocytes, cRNA microinjected
Text: as §1, §2, §3, §4, §5, §6
GABA (EC3-5) was applied to an oocyte expressing α1β2γ2 GABAA receptors several times until the current response was stable. The GABA (EC3-5) refers to the effective concentration of GABA, which produces a response that is 3-5% of the maximal response to high concentrations of GABA. Such a low concentration of GABA is chosen in order to better see the potentiating effect of positive allosteric modulators.
GABA was then applied in combination with various concentrations of the compound of formula (II) between 0.3 nM and 3,000 nM to produce a cumulative concentration response curve. […] In each batch of oocytes the stimulation by 1 μM diazepam was determined in five ocytes, extent of stimulation averaged and defined as 100%. Where indicated, stimulation by the compound of formula (II) in each batch of ocytes was expressed as a percentage of this value in the corresponding batch.
GABA (EC3-5) was applied to an oocyte expressing α1β2γ2 GABAA receptors several times until the current response was stable.

[4] = molecular target: T3, rat GABAA receptors α2β2γ2 (Rattus norvegicus, UniProt P18508+P23576); assay: Stimulation of GABA (EC3-5)-elicited currents in Xenopus oocytes, two-electrode voltage clamp, α2β2γ2; format: cell-based
T3 construct: expressed in transfected cells; host or cells: Xenopus laevis oocytes, cRNA microinjected
Text: as §1, §2, §3, §4, §5, §6, §7, §8, §9

[5] = GABA EC3-5, mean±SD of individually fitted curves, read-out: Potency
[6] = standardized to stimulation by 1 μM diazepam (100%)
[7] = unstandardized current stimulation
[8] = 1.5, 2.0 & 2.5 mg oral, vs placebo
[9] = all 4 doses (1.0, 1.5, 2 and 2.5 mg oral)
[10] = objective residual effects, 8, 10 and 12 hours after dosing

T2 sequence (P62813 28-455): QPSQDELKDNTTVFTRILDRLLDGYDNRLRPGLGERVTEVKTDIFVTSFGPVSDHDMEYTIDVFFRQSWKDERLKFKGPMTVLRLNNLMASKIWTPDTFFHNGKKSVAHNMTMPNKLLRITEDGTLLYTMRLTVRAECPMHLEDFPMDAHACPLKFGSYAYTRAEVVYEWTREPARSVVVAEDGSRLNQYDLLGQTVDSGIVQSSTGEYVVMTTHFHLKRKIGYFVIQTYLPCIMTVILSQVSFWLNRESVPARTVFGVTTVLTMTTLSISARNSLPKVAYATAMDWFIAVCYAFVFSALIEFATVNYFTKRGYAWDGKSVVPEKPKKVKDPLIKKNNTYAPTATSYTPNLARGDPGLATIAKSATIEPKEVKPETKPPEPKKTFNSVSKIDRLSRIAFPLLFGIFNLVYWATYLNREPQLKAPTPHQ
T2 sequence (P63138 25-474 partner limits assumed): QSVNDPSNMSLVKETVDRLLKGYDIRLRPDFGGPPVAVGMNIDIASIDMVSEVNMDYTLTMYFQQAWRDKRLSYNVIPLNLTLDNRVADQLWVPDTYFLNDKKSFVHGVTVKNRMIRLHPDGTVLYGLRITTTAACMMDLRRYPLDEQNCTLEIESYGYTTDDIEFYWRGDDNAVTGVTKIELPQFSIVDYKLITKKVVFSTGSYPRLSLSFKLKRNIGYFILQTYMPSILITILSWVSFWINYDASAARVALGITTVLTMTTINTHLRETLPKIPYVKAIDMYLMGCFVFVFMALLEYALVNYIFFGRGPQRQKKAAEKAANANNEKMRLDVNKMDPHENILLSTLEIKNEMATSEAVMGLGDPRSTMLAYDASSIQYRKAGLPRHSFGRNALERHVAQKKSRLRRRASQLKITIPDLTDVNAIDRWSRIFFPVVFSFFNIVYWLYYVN
T2 sequence (P18508 39-466): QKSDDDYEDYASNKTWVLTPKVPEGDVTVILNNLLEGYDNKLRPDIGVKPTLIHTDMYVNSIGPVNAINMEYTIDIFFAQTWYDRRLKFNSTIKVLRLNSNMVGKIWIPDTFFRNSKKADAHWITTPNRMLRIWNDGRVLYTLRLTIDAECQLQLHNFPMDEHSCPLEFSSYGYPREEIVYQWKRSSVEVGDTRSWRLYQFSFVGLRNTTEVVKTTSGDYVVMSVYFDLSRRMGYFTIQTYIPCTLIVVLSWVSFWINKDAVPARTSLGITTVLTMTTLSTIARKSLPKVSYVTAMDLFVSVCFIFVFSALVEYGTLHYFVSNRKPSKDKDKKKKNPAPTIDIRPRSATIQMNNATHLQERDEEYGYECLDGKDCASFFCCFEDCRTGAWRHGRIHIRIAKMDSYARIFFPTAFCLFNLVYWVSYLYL
T1 sequence (P19969 32-464 limits assumed): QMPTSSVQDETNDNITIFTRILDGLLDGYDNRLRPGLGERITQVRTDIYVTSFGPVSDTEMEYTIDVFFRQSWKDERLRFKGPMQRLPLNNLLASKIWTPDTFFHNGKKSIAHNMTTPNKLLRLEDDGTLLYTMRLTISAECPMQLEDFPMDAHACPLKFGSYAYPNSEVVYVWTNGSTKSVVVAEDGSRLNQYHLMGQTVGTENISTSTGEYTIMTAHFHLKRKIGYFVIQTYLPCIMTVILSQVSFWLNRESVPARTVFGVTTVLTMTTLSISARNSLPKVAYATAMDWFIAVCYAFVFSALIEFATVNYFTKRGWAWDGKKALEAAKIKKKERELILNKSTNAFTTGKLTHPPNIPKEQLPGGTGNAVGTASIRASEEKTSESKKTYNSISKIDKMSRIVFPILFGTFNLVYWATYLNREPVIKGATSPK
T1 sequence (P63138 25-474 partner limits assumed): as the sequence (P63138 25-474 partner limits assumed) above
T1 sequence (P18508 39-466): as the sequence (P18508 39-466) above
T3 sequence (P23576 29-451): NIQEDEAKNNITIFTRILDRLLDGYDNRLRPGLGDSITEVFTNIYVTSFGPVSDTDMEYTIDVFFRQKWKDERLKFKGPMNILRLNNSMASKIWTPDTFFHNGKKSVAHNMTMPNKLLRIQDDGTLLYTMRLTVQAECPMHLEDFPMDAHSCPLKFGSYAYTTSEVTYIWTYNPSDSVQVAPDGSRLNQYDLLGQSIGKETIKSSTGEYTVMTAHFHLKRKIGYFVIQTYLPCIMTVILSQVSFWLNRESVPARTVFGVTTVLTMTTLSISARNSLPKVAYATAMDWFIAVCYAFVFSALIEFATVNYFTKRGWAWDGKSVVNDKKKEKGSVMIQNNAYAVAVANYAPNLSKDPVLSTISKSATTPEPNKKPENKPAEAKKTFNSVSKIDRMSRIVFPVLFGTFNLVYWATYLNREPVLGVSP
T3 sequence (P63138 25-474 partner limits assumed): as the sequence (P63138 25-474 partner limits assumed) above
T3 sequence (P18508 39-466): as the sequence (P18508 39-466) above

## CN(C)Cc1nc(-c2ncn3c2CN(C)C(=O)c2c(Cl)cccc2-3)no1 [compound of formula (II), 7-chloro-3-(5-dimethylaminomethyl-[1,2,4]oxadiazol-3-yl)-5-methyl-4,5-dihydro-imidazo[1,5-a][1,4]benzodiazepine-6-one]
[1]; [5]
  EC50: 53 ± 6 nM
[1]; [6]
  Standardized Efficacy: 69 ± 23% (n = 5)
[1]; [7]
  Efficacy: 135 ± 16% (n = 5)
[2]; 2.5 mg
  Subjective assessment (LARS): Coordination: No impairment
  Subjective assessment (LARS): Mood: No impairment
  Subjective assessment (LARS): Sedation: No impairment
[2]; [8]
  WASO 2nd half night (hrs 5-8): Significantly reduced
  WASO full night (hrs 0-8): Significantly reduced
[2]; 2.0 & 2.5 mg oral, vs placebo
  Sleep Efficiency Index: Significantly improved
  Total Sleep Time: Significantly improved
[2]; 8 to 12 hours after dose, data corrected for multiple comparisons
  Performance on cognitive or psychomotor tests: no impairment of performance
[2]; all 4 doses
  Leeds Sleep Evaluation Questionnaire: Quality of sleep: Significantly improved at all
[2]; [9]
  Slow Wave Sleep (% and duration): Significantly increased
  Stage IV Sleep (% and duration): Significantly increased
[2]; at 8 or 12 h
  Sternberg Memory Task (STM): No effect
[2]; at 10 or 12 h
  Continuous Tracking Task - reaction time: No effect
[2]; at 8 h
  Continuous Tracking Task - deviation: No effect
[2]; human, in vivo
  Leeds Sleep Evaluation Questionnaire: Early morning behaviour (clumsiness & tiredness): No effect
  Leeds Sleep Evaluation Questionnaire: Ease of awakening: No effect
[2]; objective residual effects
  Choice Reaction Time - Motor Component: No effect
  Critical Flicker Fusion Test: No effect
  Word Recall - delayed (WRd): No effect
[2]; [10]
  Rapid Visual Information Processing: No effect
  Sustained Attention to Response (SART): No effect
[2]; road traffic noise model considered nondiscriminant for sleep onset measures
  Leeds Sleep Evaluation Questionnaire: Getting to sleep: (No effect)*
[3]; GABAA receptor benzodiazepine site, relative to diazepam
  Intrinsic activity / type of allosteric modulation: partial positive allosteric modulator; also recorded: partial agonist
[3]; at concentrations <100 nM, in comparison to α5β2γ2, α3β2γ2 and α2β2γ2
  Receptor subtype preference: preference for α1β2γ2 GABAA receptors
[3]; α1β2γ2, GABA EC3-5, mean±SD of individually fitted curves, read-out: Potency
  EC50: 18 ± 6 nM
[3]; α1β2γ2, standardized to stimulation by 1 μM diazepam (100%)
  Standardized Efficacy: 62 ± 10% (n = 4)
[3]; α1β2γ2, unstandardized current stimulation
  Efficacy: 123 ± 19% (n = 4)
[4]; [5]
  EC50: 62 ± 21 nM
[4]; [6]
  Standardized Efficacy: 31 ± 6% (n = 5)
[4]; [7]
  Efficacy: 90 ± 16% (n = 5)
